The numbers were not newly measured in patent US20250161389A1, “Herbal composition for the treatment of malaria” (RNA Therapeutics, Inc., priority 2023, published 2025), which cites them from elsewhere.

The subject of the series is Plasmodium. The settings on record: isolated compound, best activity.

With `C=C(C)[C@@H]1CC[C@@]2(C)[C@H]1[C@@H]1CC[C@@H]3[C@@]4(C)CCC(=O)C(C)(C)[C@@H]4[C@H](O)C[C@@]3(C)[C@]1(C)C[C@@H]2O` [resinone (39), resinone], the IC50 is less than 1 µg/mL.

One may read the IC50 as the concentration that inhibits the measured activity by half.
